Among the data in patent US11780830B2, “Triazolone derivatives or salts thereof and pharmaceutical compositions comprising the same” (YUHAN CORPORATION, priority 2018, dated 2023) are IC50 values, retold here.

Where a name gives a salt, the structure may show the parent alone.

Common to all, as to format: biochemical
Assay [1] concerns the target T1, recombinant human DAO (diamine oxidase) (Homo sapiens, UniProt P19801).
T1 construct: purchased R&D systems
T1 sequence (P19801 20-751): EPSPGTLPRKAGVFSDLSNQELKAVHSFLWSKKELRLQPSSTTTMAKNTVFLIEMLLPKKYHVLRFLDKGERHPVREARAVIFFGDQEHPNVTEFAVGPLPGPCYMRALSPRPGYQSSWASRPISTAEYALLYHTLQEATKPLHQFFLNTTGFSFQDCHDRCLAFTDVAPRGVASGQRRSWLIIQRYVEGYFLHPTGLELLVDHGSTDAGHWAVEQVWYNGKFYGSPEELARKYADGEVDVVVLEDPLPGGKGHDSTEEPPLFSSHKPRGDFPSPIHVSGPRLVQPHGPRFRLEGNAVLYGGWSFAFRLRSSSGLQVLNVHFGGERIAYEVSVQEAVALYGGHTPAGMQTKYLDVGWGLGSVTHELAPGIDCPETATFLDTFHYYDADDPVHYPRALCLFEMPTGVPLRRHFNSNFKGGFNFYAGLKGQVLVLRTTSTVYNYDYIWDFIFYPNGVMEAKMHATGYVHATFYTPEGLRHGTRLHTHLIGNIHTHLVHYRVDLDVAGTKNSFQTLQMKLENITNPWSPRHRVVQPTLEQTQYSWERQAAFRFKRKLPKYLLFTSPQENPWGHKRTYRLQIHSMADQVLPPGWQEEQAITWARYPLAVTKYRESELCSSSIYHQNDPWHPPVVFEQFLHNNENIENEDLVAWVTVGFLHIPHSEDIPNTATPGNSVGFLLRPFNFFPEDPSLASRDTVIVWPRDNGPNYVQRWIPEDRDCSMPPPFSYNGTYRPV
The assay is described as follows: Activity on recombinant human DAO, method similar to the VAP-1 assay. The note with it: substrate 1 mM putrescine; read-out: Inhibitory Activity (IC50, nM) DAO. The gist of the method: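 Inhibition of recombinant human diamine oxidase (DAO, R&D systems) was assessed by the same approach as the VAP-1 assay, using 1 mM putrescine as substrate. Hydrogen peroxide formed was detected through an HRP-coupled Amplex Red reaction yielding fluorescent resorufin, read at 544 nm excitation and 590 nm emission. IC50 values came from four-parameter logistic fitting in GraphPad Prism.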

Assay [2] concerns the target T2, recombinant human MAO-B (monoamine oxidase-B) (Homo sapiens, UniProt P27338).
T2 construct: purchased Sigma-Aldrich
T2 sequence (P27338 1-520): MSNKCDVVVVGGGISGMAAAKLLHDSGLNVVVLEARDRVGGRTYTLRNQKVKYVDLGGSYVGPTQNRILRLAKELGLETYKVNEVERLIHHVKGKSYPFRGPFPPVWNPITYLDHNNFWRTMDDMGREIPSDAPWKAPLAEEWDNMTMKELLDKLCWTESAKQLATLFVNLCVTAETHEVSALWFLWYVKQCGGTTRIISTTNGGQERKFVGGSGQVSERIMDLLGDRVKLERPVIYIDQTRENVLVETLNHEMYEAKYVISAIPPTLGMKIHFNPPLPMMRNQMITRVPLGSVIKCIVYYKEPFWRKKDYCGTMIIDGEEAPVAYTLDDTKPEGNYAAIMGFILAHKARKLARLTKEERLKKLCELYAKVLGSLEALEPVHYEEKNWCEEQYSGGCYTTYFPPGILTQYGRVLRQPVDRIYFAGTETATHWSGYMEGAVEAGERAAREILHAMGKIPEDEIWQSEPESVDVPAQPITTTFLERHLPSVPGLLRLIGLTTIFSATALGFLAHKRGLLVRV
Nature of the assay: Activity on recombinant human MAO-B, method similar to the VAP-1 assay. The note with it: substrate 1 mM benzylamine; read-out: Inhibitory Activity (IC50, nM) MAO-B. An outline of the steps: (§1)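 Enzyme preincubated with compound 30 min at 37 °C in 50 mM sodium phosphate pH 7.4, final DMSO below 1%. Substrate was 0.5 mM tyramine for MAO-A and 1 mM benzylamine for MAO-B, with 200 uM Amplex Red and 1 U/mL HRP. H2O2-coupled resorufin fluorescence (ex 544/em 590) followed over 1–2 h; 8-point 4-parameter IC50.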

Assay [3] deals with T3, recombinant human MAO-A (monoamine oxidase-A) (Homo sapiens, UniProt P21397).
T3 construct: purchased Sigma-Aldrich
T3 sequence (P21397 1-527): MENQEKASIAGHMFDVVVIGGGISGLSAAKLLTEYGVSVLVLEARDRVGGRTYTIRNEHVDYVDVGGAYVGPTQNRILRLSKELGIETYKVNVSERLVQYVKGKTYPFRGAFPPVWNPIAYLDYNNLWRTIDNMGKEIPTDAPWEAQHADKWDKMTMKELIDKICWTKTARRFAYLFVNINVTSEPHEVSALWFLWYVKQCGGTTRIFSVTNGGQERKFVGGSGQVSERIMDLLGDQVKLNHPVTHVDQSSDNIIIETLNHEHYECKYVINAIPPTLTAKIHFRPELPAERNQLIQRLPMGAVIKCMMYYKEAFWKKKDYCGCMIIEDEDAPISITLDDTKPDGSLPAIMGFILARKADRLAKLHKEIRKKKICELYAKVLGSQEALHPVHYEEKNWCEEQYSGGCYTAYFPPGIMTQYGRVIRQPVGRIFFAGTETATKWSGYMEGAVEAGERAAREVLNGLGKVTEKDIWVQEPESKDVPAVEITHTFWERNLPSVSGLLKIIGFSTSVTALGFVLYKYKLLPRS
The assay is described as follows: Activity on recombinant human MAO-A, method similar to the VAP-1 assay. The note with it: substrate 0.5 mM tyramine; read-out: Inhibitory Activity (IC50, nM) MAO-A. The gist of the method: as §1

In assay [4] the target is T4, recombinant human VAP-1 (Homo sapiens, UniProt Q16853).
T4 construct: purchased R&D systems
T4 sequence (Q16853 1-763): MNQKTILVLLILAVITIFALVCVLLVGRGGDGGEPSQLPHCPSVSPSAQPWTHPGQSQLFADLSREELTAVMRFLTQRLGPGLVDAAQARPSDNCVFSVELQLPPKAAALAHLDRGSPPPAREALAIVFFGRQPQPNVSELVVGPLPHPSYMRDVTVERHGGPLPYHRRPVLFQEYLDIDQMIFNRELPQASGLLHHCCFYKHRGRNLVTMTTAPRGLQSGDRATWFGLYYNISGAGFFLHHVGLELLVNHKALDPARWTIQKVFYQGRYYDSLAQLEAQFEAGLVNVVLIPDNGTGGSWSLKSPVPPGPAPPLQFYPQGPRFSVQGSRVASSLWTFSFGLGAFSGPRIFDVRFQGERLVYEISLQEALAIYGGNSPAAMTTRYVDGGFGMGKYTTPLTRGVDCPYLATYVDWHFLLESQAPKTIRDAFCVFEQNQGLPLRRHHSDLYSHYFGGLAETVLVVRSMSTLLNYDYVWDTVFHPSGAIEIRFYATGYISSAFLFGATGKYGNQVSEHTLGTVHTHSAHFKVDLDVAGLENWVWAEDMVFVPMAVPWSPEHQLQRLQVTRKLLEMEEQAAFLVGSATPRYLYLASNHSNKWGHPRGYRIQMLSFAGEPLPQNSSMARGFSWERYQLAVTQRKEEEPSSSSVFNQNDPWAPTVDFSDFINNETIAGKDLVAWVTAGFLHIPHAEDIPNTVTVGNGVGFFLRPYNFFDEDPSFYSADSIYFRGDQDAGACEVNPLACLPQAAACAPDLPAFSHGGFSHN
Nature of the assay: Activity on recombinant human VAP-1, HRP-coupled Amplex Red hydrogen peroxide assay. The note with it: substrate 1 mM benzylamine; compound incubated with enzyme at 37° C. for 30 minutes; pH 7.4; read-out: Inhibitory Activity (IC50, nM) human VAP-1. An outline of the steps:
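Enzyme in 50 mM sodium phosphate pH 7.4 preincubated with compound 30 min at 37 °C, then 1 mM benzylamine, 200 µM Amplex Red and 1 U/mL HRP added. H2O2-derived resorufin fluorescence (ex 544/em 590 nm) followed over 1–2 h; signal-rate decrease versus DMSO control, 8-point curve, four-parameter logistic IC50.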

By IC50 is commonly meant the concentration that gives 50% inhibition. On to `NC/C(=C\F)Cn1ncn(Cc2ccc(-c3ccc(N4CCCC4=O)cc3)s2)c1=O` [Example 21, 2-[(2E)-2-(aminomethyl)-3-fluoroprop-2-en-1-yl]-4-(5-[4-(2-oxopyrrolidin-1-yl)phenyl]thiophen-2-ylmethyl)-2,4-dihydro-3H-1,2,4-triazol-3-one hydrochloride], for which the IC50 in assay [1] is 1300 nM; in assay [2], 3000 nM; in assay [3], > 100000 nM; in assay [4] it was 2 nM.
On the same counts, the results for `NC/C(=C\F)Cn1ncn(Cc2ccc(-c3ccc(-c4nnc[nH]4)cc3)s2)c1=O` [Example 31, 2-[(2E)-2-(aminomethyl)-3-fluoroprop-2-en-1-yl]-4-(5-[4-(4H-1,2,4-triazol-3-yl)phenyl]thiophen-2-ylmethyl)-2,4-dihydro-3H-1,2,4-triazol-3-one] are 120 nM, 73 nM, > 100000 nM and 0.67 nM.
On the same counts, the results for `CC(=O)c1ccc(-c2ccc(Cn3cnn(C/C(=C/F)CN)c3=O)s2)cc1` [Example 180, 4-{[5-(4-acetylphenyl)thiophen-2-yl]methyl}-2-[(2E)-2-(aminomethyl)-3-fluoroprop-2-en-1-yl]-2,4-dihydro-3H-1,2,4-triazol-3-one] are 1200 nM, 410 nM, > 100000 nM and 0.9 nM.
Turning to `CN(C)c1ccc(C#Cc2ccc(Cn3cnn(C/C(=C/F)CN)c3=O)s2)cn1` [Example 128, 2-[(E)-2-(aminomethyl)-3-fluoro-allyl]-4-[[5-[2-[6-(dimethylamino)-3-pyridyl]ethynyl]-2-thienyl]methyl]-1,2,4-triazol-3-one], the IC50 worked out at 9800 nM in assay [1], 490 nM in assay [2], 30000 nM in assay [3] and 0.7 nM in assay [4].
Turning to `NC/C(=C\F)Cn1ncn(Cc2ccc(/C=C/c3ccsc3)s2)c1=O` [Example 121, 2-[(E)-2-(aminomethyl)-3-fluoro-allyl]-4-[[5-[(E)-2-(3-thienyl)vinyl]-2-thienyl]methyl]-1,2,4-triazol-3-one hydrochloride], the half-maximal inhibitory concentration (IC50) was 1800 nM in assay [1], 290 nM in assay [2], > 100000 nM in assay [3] and 1.2 nM in assay [4].
On to `NC/C(=C\F)Cn1ncn(Cc2ccc(-c3ccncc3)s2)c1=O` [Example 160, 2-[(2E)-2-(aminomethyl)-3-fluoroprop-2-en-1-yl]-4-{[5-(pyridin-4-yl)thiophen-2-yl]methyl}-2,4-dihydro-3H-1,2,4-triazol-3-one], for which the IC50 is 1100 nM in assay [1], 51 nM in assay [2], > 100000 nM in assay [3] and 2.2 nM in assay [4].
Consider `CC(=O)N1CC=C(c2ccc(Cn3cnn(C/C(=C/F)CN)c3=O)s2)CC1` [Example 59, 4-[[5-(1-acetyl-3,6-dihydro-2H-pyridin-4-yl)-2-thienyl]methyl]-2-[(E)-2-(aminomethyl)-3-fluoro-allyl]-1,2,4-triazol-3-one], for which the IC50 in assay [1] was 1300 nM; in assay [2], 990 nM; in assay [3], > 100000 nM; in assay [4], 0.5 nM.
Take `NC/C(=C\F)Cn1ncn(Cc2ccc(C#Cc3cnc4c(c3)NC(=O)CO4)s2)c1=O` [Example 138, 7-[2-[5-[[1-[(E)-2-(aminomethyl)-3-fluoro-allyl]-5-oxo-1,2,4-triazol-4-yl]methyl]-2-thienyl]ethynyl]-1H-pyrido[2,3-b][1,4]oxazin-2-one hydrochloride]: the IC50 in assay [1] is 470 nM; in assay [2] it was 2300 nM; in assay [3], > 100000 nM; in assay [4] it was 0.2 nM.
On the same counts, the results for `NC/C(=C\F)Cn1ncn(Cc2ccc(-c3ccc4c(c3)C(=O)NCC4)s2)c1=O` [Example 74, 7-[5-(1-[(2E)-2-(aminomethyl)-3-fluoroprop-2-en-1-yl]-5-oxo-1,5-dihydro-4H-1,2,4-triazol-4-ylmethyl)thiophen-2-yl]-3,4-dihydroisoquinolin-1(2H)-one hydrochloride] are 620 nM, > 10000 nM, > 100000 nM and 0.3 nM.
On the same counts, the results for `CN(C)S(=O)(=O)c1cccc(-c2ccc(Cn3cnn(C/C(=C/F)CN)c3=O)s2)c1` [Example 183, 3-[5-({1-[(2E)-2-(aminomethyl)-3-fluoroprop-2-en-1-yl]-5-oxo-1,5-dihydro-4H-1,2,4-triazol-4-yl}methyl)thiophen-2-yl]-N,N-dimethylbenzenesulfonamide] are 440 nM, 220 nM, > 100000 nM and 1.2 nM.
On the same counts, the results for `NC/C(=C\F)Cn1ncn(Cc2ccc(-c3ccc(C4CCOCC4)cc3)s2)c1=O` [Example 25, 2-[(2E)-2-(aminomethyl)-3-fluoroprop-2-en-1-yl]-4-(5-[4-(tetrahydro-2H-pyran-4-yl)phenyl]thiophen-2-ylmethyl)-2,4-dihydro-3H-1,2,4-triazol-3-one hydrochloride] are 690 nM, 1300 nM, > 100000 nM and 3.1 nM.
